The record followed here is US20110142802A1, “FUNGICIDAL COMPOSITIONS” (SYNGENTA CROP PROTECTION, INC., priority 2008, published 2011).

The subject of data set [1] is Mycosphaerella arachidis (Cercospora arachidicola; MYCOAR). Description: Growth inhibition of Mycosphaerella arachidis in nutrient broth, 96-well microtiter plate, photometric at 620 nm. The data set is classed as cell-based. The settings on record: 8 days. The source says: A synergistic effect exists whenever the action of an active ingredient combination is greater than the sum of the actions of the individual components. The action to be expected E for a given active ingredient combination obeys the so-called COLBY formula and can be calculated as follows (COLBY, S. R. “Calculating synergistic and antagonistic responses of herbicide combination”. Weeds, Vol. 15, pages 20-22; 1967): ppm=milligrams of active ingredient (=a.i.) per liter of spray mixture X=% action by active ingredient A) using p ppm of active ingredient Y=% action by active ingredient B) using q ppm of active ingredient. According to COLBY, the expected (additive) action of active ingredients A)+B) using p+q ppm of active ingredient is If the action actually observed (O) is greater than the expected action (E), then the action of the combination is super-additive, i.e. there is a synergistic effect. In mathematical terms, synergism corresponds to a positive value for the difference of (O-E). In the case of purely complementary addition of activities (expected activity), said difference (O-E) is zero. A negative value of said difference (O-E) signals a loss of activity compared to the expected activity. Mycosphaerella arachidis (Cercospora arachidicola; MYCOAR): Conidia of the fungus from cryogenic storage are directly mixed into nutrient broth (PDB potato dextrose broth). After placing a (DMSO) solution of the test compounds into a microtiter plate (96-well format) the nutrient broth containing the fungal spores is added.

The test system of data set [2] is Mycosphaerella graminicola (Septoria tritici; SEPTTR). Description: Growth inhibition of Mycosphaerella graminicola in nutrient broth, 96-well microtiter plate, photometric. The data set is classed as cell-based. The conditions noted are these: 4 days. The text has this:
A synergistic effect exists whenever the action of an active ingredient combination is greater than the sum of the actions of the individual components. The action to be expected E for a given active ingredient combination obeys the so-called COLBY formula and can be calculated as follows (COLBY, S. R. “Calculating synergistic and antagonistic responses of herbicide combination”. Weeds, Vol. 15, pages 20-22; 1967): ppm=milligrams of active ingredient (=a.i.) per liter of spray mixture X=% action by active ingredient A) using p ppm of active ingredient Y=% action by active ingredient B) using q ppm of active ingredient. According to COLBY, the expected (additive) action of active ingredients A)+B) using p+q ppm of active ingredient is If the action actually observed (O) is greater than the expected action (E), then the action of the combination is super-additive, i.e. there is a synergistic effect. In mathematical terms, synergism corresponds to a positive value for the difference of (O-E). In the case of purely complementary addition of activities (expected activity), said difference (O-E) is zero. A negative value of said difference (O-E) signals a loss of activity compared to the expected activity. Mycosphaerella graminicola (Septoria tritici; […]): Conidia of the fungus from cryogenic storage are directly mixed into nutrient broth (PDB potato dextrose broth). After placing a (DMSO) solution of the test compounds into a microtiter plate (96-well format) the nutrient broth containing the fungal spores is added.

For data set [3], the system named is Alternaria solani (ALTESO). Description: Growth inhibition of Alternaria solani in nutrient broth, 96-well microtiter plate, photometric. In kind it is cell-based. The settings on record: 3 days. The source says:
A synergistic effect exists whenever the action of an active ingredient combination is greater than the sum of the actions of the individual components. The action to be expected E for a given active ingredient combination obeys the so-called COLBY formula and can be calculated as follows (COLBY, S. R. “Calculating synergistic and antagonistic responses of herbicide combination”. Weeds, Vol. 15, pages 20-22; 1967): ppm=milligrams of active ingredient (=a.i.) per liter of spray mixture X=% action by active ingredient A) using p ppm of active ingredient Y=% action by active ingredient B) using q ppm of active ingredient. According to COLBY, the expected (additive) action of active ingredients A)+B) using p+q ppm of active ingredient is If the action actually observed (O) is greater than the expected action (E), then the action of the combination is super-additive, i.e. there is a synergistic effect. In mathematical terms, synergism corresponds to a positive value for the difference of (O-E). In the case of purely complementary addition of activities (expected activity), said difference (O-E) is zero. A negative value of said difference (O-E) signals a loss of activity compared to the expected activity. Alternaria solani ([…]): Conidia harvested from a freshly grown colony of the fungus are directly mixed into nutrient broth (PDB potato dextrose broth). After placing a (DMSO) solution of the test compounds into a microtiter plate (96-well format) the nutrient broth containing the fungal spores is added.

Data set [4] concerns Pyrenophora teres (PYRNTE). Briefly: Growth inhibition of Pyrenophora teres in nutrient broth, 96-well microtiter plate, photometric. The settings on record: 3 days. In kind it is cell-based. The source says: A synergistic effect exists whenever the action of an active ingredient combination is greater than the sum of the actions of the individual components. The action to be expected E for a given active ingredient combination obeys the so-called COLBY formula and can be calculated as follows (COLBY, S. R. “Calculating synergistic and antagonistic responses of herbicide combination”. Weeds, Vol. 15, pages 20-22; 1967): ppm=milligrams of active ingredient (=a.i.) per liter of spray mixture X=% action by active ingredient A) using p ppm of active ingredient Y=% action by active ingredient B) using q ppm of active ingredient. According to COLBY, the expected (additive) action of active ingredients A)+B) using p+q ppm of active ingredient is If the action actually observed (O) is greater than the expected action (E), then the action of the combination is super-additive, i.e. there is a synergistic effect. In mathematical terms, synergism corresponds to a positive value for the difference of (O-E). In the case of purely complementary addition of activities (expected activity), said difference (O-E) is zero. A negative value of said difference (O-E) signals a loss of activity compared to the expected activity. Pyrenophora teres ([…]): Conidia of the fungus from cryogenic storage are directly mixed into nutrient broth (PDB potato dextrose broth). After placing a (DMSO) solution of the test compounds into a microtiter plate (96-well format) the nutrient broth containing the fungal spores is added.

[5] abbreviates: single active ingredient 0.0313 mg/L (ppm ai).
Where [6] appears, read: single active ingredient 0.0625 mg/L (ppm ai).
The mark [7] stands for this setting: single active ingredient 0.125 mg/L (ppm ai).
The mark [8] stands for this setting: single active ingredient 0.0039 mg/L (ppm ai).
Where [9] appears, read: single active ingredient 0.0078 mg/L (ppm ai).
[10] abbreviates: single active ingredient 0.0156 mg/L (ppm ai).
Setting [11] is: single active ingredient 0.25 mg/L (ppm ai).
[12] abbreviates: single active ingredient 0.5 mg/L (ppm ai).

By melting point is commonly meant the temperature of the solid-liquid transition.

Where “and” joins values, the source holds several entries; their conditions need not be identical. Equal entries are not always repeated.

In the case of `N#Cc1c(Cl)c(Cl)c(Cl)c(C#N)c1Cl` [Chlorothalonil, chlorothalonil], the “Observed control in % (% Cobs)” value is on record as 7.6% in data set [1] (setting [5]); 8.2% in data set [1] (setting [6]); 9.9% in data set [1] (setting [7]); 3.0% in data set [2] (setting [8]); 0.0% in data set [2] (setting [9]); 0.7% in data set [2] (setting [10]). In addition, the “Observed control in % (% Cobs)” value in data set [2] (setting [5]) amounted to 0.0%.

Turning to `Cc1nnc(Cl)c(-c2c(F)cccc2Cl)c1-c1ccc(Cl)nc1` [Compound A-1.2, 3-chloro-5-(6-chloro-pyridin-3-yl)-6-methyl-4-(2-chloro-6-fluoro-phenyl)-pyridazine], the melting point was 166 to 167 °C.

Take `Cc1nnc(Cl)c(-c2c(F)cc(F)cc2F)c1-c1ccc(Cl)nc1` [Compound A-1.1, 3-chloro-5-(6-chloro-pyridin-3yl)-6-methyl-4-(2,4,6-trifluoro-phenyl)-pyridazine]: the melting point was in the range of 182 to 183 °C. Also, in data set [3] (setting [11]), the “Observed control in % (% Cobs)” value is 13.3% and 7.0%. Also, in data set [3] (setting [12]), the “Observed control in % (% Cobs)” value is 28.4% and 39.9%. In data set [3] (single active ingredient 1.0 mg/L (ppm ai)), the “Observed control in % (% Cobs)” value is given as 38.8%. In addition, in data set [1] (setting [5]), the “Observed control in % (% Cobs)” value amounted to 6.7%. In addition, the “Observed control in % (% Cobs)” value in data set [1] (setting [6]) was 3.5% and 5.1%. Further, the “Observed control in % (% Cobs)” value in data set [1] (setting [11]) is 51.3% and 56.5%. Further, the “Observed control in % (% Cobs)” value in data set [2] (setting [10]) was 1.4% and 0.3% and 1.6% and 3.4%. Further, the “Observed control in % (% Cobs)” value in data set [2] (setting [5]) was 3.7% and 5.3% and 6.3%. Also, in data set [2] (setting [6]), the “Observed control in % (% Cobs)” value is 14.9% and 13.0% and 15.1% and 13.7%. For the same compound, in data set [2] (setting [7]), the “Observed control in % (% Cobs)” value is 59.1% and 67.2% and 58.5% and 80.1%.

As to `Fc1ccc([C@]2(Cn3cncn3)O[C@H]2c2ccccc2Cl)cc1` (racemic) [Epoxiconazole, epoxiconazole], the “Observed control in % (% Cobs)” value stood at 0.0% in data set [3] (setting [6]); 24.3% in data set [3] (setting [7]); 28.9% in data set [3] (setting [11]); 6.8% in data set [2] (setting [6]); 18.0% in data set [2] (setting [7]); 36.8% in data set [2] (setting [11]). In addition, in data set [2] (setting [12]), the “Observed control in % (% Cobs)” value amounted to 51.8%.

Compound `COc1nnc(C)c(-c2ccc(Cl)nc2)c1-c1c(F)cc(F)cc1F` [Compound A-1.3, 4-(6-chloro-pyridin-3-yl)-6-methoxy-3-methyl-5-(2,4,6-trifluoro-phenyl)-pyridazine] had a melting point of 123 to 124 °C.

On to `OC(Cc1ccccc1Cl)(Cn1nc[nH]c1=S)C1(Cl)CC1` (centres unmarked) [Prothioconazole, prothioconazole], for which the “Observed control in % (% Cobs)” value amounted to 22.0% in data set [1] (setting [10]); 59.1% in data set [1] (setting [5]); 28.9% in data set [4] (setting [6]); 50.1% in data set [4] (setting [7]); 66.6% in data set [4] (setting [11]).

As for `CN1COCN(Cc2cnc(Cl)s2)/C1=N\[N+](=O)[O-]` [Thiomethoxam, thiamethoxam], the “Observed control in % (% Cobs)” value in data set [4] (setting [6]) is listed as 0.0%; in data set [4] (setting [7]), 0.0%; in data set [4] (setting [11]), 0.0%; in data set [2] (setting [8]), 1.8%; in data set [2] (setting [9]), 1.6%; in data set [2] (setting [10]), 0.0%. In addition, the “Observed control in % (% Cobs)” value was found to be 2.9% in data set [2] (setting [5]) and 0.0% in data set [2] (setting [6]).

Turning to mancozeb, in data set [3] (setting [11]), the “Observed control in % (% Cobs)” value stood at 0.7%.

Turning to `CC(C1CC1)C(O)(Cn1cncn1)c1ccc(Cl)cc1` (centres unmarked) [Cyproconazole, cyproconazole], the “Observed control in % (% Cobs)” value in data set [4] (setting [6]) was 0.0%; in data set [4] (setting [7]), 0.0%; in data set [4] (setting [11]), 15.1%; in data set [2] (setting [8]), 2.3%; in data set [2] (setting [9]) it was 2.8%; in data set [2] (setting [10]) it was 4.7%. The “Observed control in % (% Cobs)” value is reported as 1.9% in data set [2] (setting [5]) and 0.6% in data set [2] (setting [6]).

Regarding `CC1COC(Cn2cncn2)(c2ccc(Oc3ccc(Cl)cc3)cc2Cl)O1` (centres unmarked) [Difenoconazole, difenoconazole], the entries for the “Observed control in % (% Cobs)” value in data set [3] (setting [6]), in data set [3] (setting [7]) and in data set [1] (setting [10]) were 37.6%, 36.9% and 66.5%, respectively.

Turning to `Cc1cc(C2CC2)nc(Nc2ccccc2)n1` [Cyprodinil, cyprodinil], the results for the “Observed control in % (% Cobs)” value in data set [4] (setting [6]) and in data set [4] (setting [7]) were 23.8% and 45.1%, respectively.

As to `CO/C=C(/C(=O)OC)c1ccccc1Oc1cc(Oc2ccccc2C#N)ncn1` [Azoxystrobin, azoxystrobin], the entries for the “Observed control in % (% Cobs)” value in data set [1] (setting [5]) and in data set [1] (setting [6]) were 44.8% and 76.4%, respectively.
